Assay results as given in paper PMC7178208 (International Journal of Molecular Sciences, 2020).
In brackets after ≈: the same amount, converted by molar mass. Peptide text beside a SMILES is read from it. * marks the point of attachment. FITC = O=C1OC2(c3ccc(O)cc3Oc3cc(O)ccc32)c2ccc(NC(=S)*)cc21; Ahx = NCCCCCC(=O)O

What was measured:
[1] = system: C. albicans American Type Culture Collection (ATCC) 10,231; type: cell-based, Candida albicans; details: American Type Culture Collection (ATCC) 10,231, 24 h
Method: C. albicans (ATCC 10231) from the American Type Culture Collection (Manassas, VA, USA) was cultured at 28 °C on SD agar plates.
To determine the minimum inhibitory concentration (MIC) values of the FITC conjugated-P-113 peptides and their derivatives, a broth microdilution assay was used. Overnight-grown cultures of C. albicans in SD broth were sub-cultured for several hours and subsequently diluted to a final concentration of 5 × 10^4 CFU/mL in Mueller Hinton (MH) broth and LYM broth. A total of 100 μL of diluted microbe was transferred into each well of a 96-well plate, into which a 1 μL dilution series of peptides in sterile water (ranging from 50 to 0.78 μg/mL) was previously added. After incubation for 24 h at 28 ℃, the MIC value of P-113 peptides was determined as the lowest concentration at which no change in optical density was observed. The experiment was conducted three times, and average values were reported.

Candida albicans = type: cell-based; details: 24 h, 1
Method: Figure 7 Time killing activity of FITC-labeled P-113 peptide and its FITC-labeled derivatives against Candida albicans. Cells were treated with 1× MIC of (a) P-113 (black circle), FITC-labeled N-terminal truncated P-113 (black square), FITC-labeled C-terminal truncated P-113 (black triangle), and (b) treated with FITC-labeled Bip-P-113 (white square), and FITC-labeled Dip-P-113 (white triangle). Killed cells (%) = (cell number in peptide-free control − cell number in sample)/(cell number in peptide-free control) × 100. Error bars represent the standard errors of the mean.
C. albicans were cultivated onto Sabouraud dextrose agar plates overnight and sub-cultured twice before time killing assays. A total of 5 × 10^4 CFU/mL of C. albicans cells were treated with 1× MIC of FITC-conjugated P-113 peptides and their derivatives in SD broth for 10, 20, 30, 60, and 120 min at 28 °C. After that time, serial dilutions (1:10) of the incubation mixtures were added onto SD agar. The numbers of CFU were counted after 24 h of incubation at 28 °C. The percentage of killed cells was calculated by comparison with the number of cells in a control sample incubated without P-113 peptide. The assays were performed in triplicate.

[2] = 0.01% P-113 (0.07 μM) in a mouthrinse treatment, clinical trial; cited from earlier work
C. albicans [3] = test: Confocal laser microscopy, localization of FITC peptides; type: cell-based, Candida albicans; details: 50 μM FITC-conjugated peptide, 10^7 CFU/mL, SD broth, 28 °C, 5 min
Method: Firstly, 10^7 CFU/mL of C. albicans was incubated with 0.25 mM FITC P-113 and 0.25 mM FITC alone (as a negative control) in SD broth at 28 °C for 1, 2, 3, 4, 5, and 6 h. Another experiment was performed to observe the short-term localization of Bip-P-113 and Dip-P-113 peptides. Briefly, log-phase C. albicans cultures were resuspended to a cell density of 10^7 CFU/mL in SD broth and treated for 5 min at 28 °C with 50 μM FITC-conjugated P-113, Bip-P-113, and Dip-P-113. After centrifugation, the cells were washed three times with 20 mM phosphate buffer (pH 7.4) to remove nonbinding peptides and fixed with 4% (w/v) paraformaldehyde in 20 mM phosphate buffer (pH 7.4) at room temperature for 20 min. Following fixation, the cells were centrifuged at 3500× g for 5 min, resuspended in phosphate buffer, and loaded onto a glass slide with a 1.4% solid agarose bed. The images were taken with a confocal laser scanning microscope (LSM 510 META, Carl Zeiss, Jena, Germany) equipped with a 40× C-Apochromat water-immersion objective lens (Carl Zeiss, Jena, Germany).

C. albicans [4] = test: Scanning electron microscopy, cell morphology; type: cell-based, Candida albicans; details: 0.25 mM P-113, 10^7 CFU/mL, SD broth, 28 °C, 1-6 h
Method: Time-course morphological studies of C. albicans were performed by scanning electron microscopy (SEM). Overnight cultures of C. albicans were sub-cultured and grown in SD broth. Then, 10^7 CFU/mL of C. albicans was treated with 0.25 mM P-113 in SD broth at 28 °C. Samples were collected following 1, 2, 3, 4, 5, and 6 h of incubation. Another experiment was performed to observe the morphological changes caused over in a short time caused by Bip-P-113 and Dip-P-113. Briefly, 10^7 CFU/mL of C. albicans in SD broth was treated for 5 min at 28 °C with 50 μM P-113, Bip-P-113, and Dip-P-113. After harvest, cells were resuspended in fixation solution (2.5% glutaraldehyde in 20 mM phosphate buffer pH 7.4) and then placed on Thermanox substrate-coated cover slips at 4 °C for 12 h. The cover slips were carefully washed three times with 20 mM phosphate buffer (pH 7.4), followed by incubation in post-fixation solution (1% OsO4 in 20 mM phosphate buffer pH 7.4) at room temperature for an hour. After being washed three times with 20 mM phosphate buffer (pH 7.4), the cover slips were air-dried for an hour by dehydration with a graded series of ethanol. Samples were gold-coated and observed under an S-4700 field-emission (FE)-SEM (Hitachi, Ltd., Tokyo, Japan) at an acceleration voltage of 5 kV.

[5] = system: living C. albicans cells (secreted aspartic proteinases, Saps); test: Degradation of P-113 by living C. albicans cells (NMR); type: in vitro ADME, Candida albicans
Method: For living cell NMR experiments, the interaction between ^15N-labeled P-113 peptides and C. albicans was monitored by 2D heteronuclear single quantum coherence (HSQC) spectroscopy. The peptides were dissolved in SD broth for a total volume of 500 μL at a 0.275 mM concentration. After centrifugation, 10^7 CFU/mL of cells were resuspended in 50 μL of SD broth and then titrated into the peptide solution. The ^15N-^1H HSQC spectra were recorded on a Bruker Avance 600-MHz NMR spectrometer in the States-TPPI mode for quadrature detection at 301 K. The ^1H and ^15N carriers were placed at 4.699 and 120 ppm, respectively. After titration, 2D HSQC spectra were collected every hour during 24 h of incubation at 301 K. All spectra were processed with NMRPipe and analyzed using the Sparky program (T.D. Goddard and D.G. Kneller, SPARKY3, University of California, San Francisco, CA, USA).
To obtain sequence assignment information, 3D spectra, including those from HNCA, HN(CO)CA, HNCACB, HN(CO)CACB, HN(CA)CO, and HNCO experiments, were recorded on a Bruker Avance 600-MHz NMR spectrometer at 301 K. The ^13C carriers were placed at 48 ppm for C^α, at 38 ppm for ^13C^α/β and at 174 ppm for C′. All spectra were processed with NMRPipe and analyzed using the Sparky program.
To observe the correlation of amide nitrogen (^15Ni) to the carbon (^13C′) spin in the proceeding residue (^13C′i−1), 2D CON experiments were performed on Bruker Avance 850-MHz NMR spectrometer equipped with a triple-resonance cryogenic probe. The spectra comparing ^15N-, ^13C-labeled P-113 in SD broth and in a C. albicans titration were recorded with the center frequencies at 120 ppm (^15N) and 174 ppm (^13C), respectively. All spectra were processed with NMRPipe and analyzed using the Sparky program.
The inhibition of P-113 degradation by C. albicans was determined using living cell NMR experiments as described above in the presence of 0.5 mM of the aspartic protease inhibitor pepstatin A.

Which “MIC, LYM Control” value [1] does the source give for `C[C@H](NC(=O)CCCCCNC(=S)Nc1ccc2c(c1)C(=O)OC21c2ccc(O)cc2Oc2cc(O)ccc21)C(=O)N[C@@H](CCCCN)C(=O)N[C@@H](CCCNC(=N)N)C(=O)N[C@@H](Cc1c[nH]cn1)C(=O)N[C@@H](Cc1c[nH]cn1)C(=O)NCC(=O)N[C@@H](Cc1ccc(O)cc1)C(=O)N[C@@H](CCCCN)C(=O)N[C@@H](CCCNC(=N)N)C(=O)N[C@@H](CCCCN)C(=O)N[C@@H](Cc1ccccc1)C(=O)N[C@@H](Cc1c[nH]cn1)C(N)=O` [Peptide P-113] ({FITC-Ahx}-AKRHHGYKRKFH-NH2; N-terminus assumed) here?
The value was 3.13 µg/mL (≈ 1.51 µM).

And the “MIC, MH Broth” value [1]?
The value was >50 µg/mL.

What about the Killed cells (Candida albicans) of the same molecule?
The Killed cells was 87%.

And the “Effect on gingivitis and plaque” value [2]?
Its value is “reduced the development of gingivitis and plaque”.

And the “Cellular localization of FITC peptide” value (C. albicans [3])?
Its value is “accumulated in the cytosol”.

And the “Cell surface morphology (SEM), time course” value (C. albicans [4])?
The value was “smooth”.

What about the Cleavage sites ([5]; 0.25 mM 15N-,13C-labeled P-113, 10^7 CFU/mL C. albicans, SD broth, 301 K, 24 h, 15N-13C CON and 3D backbone assignment) of the same molecule?
The Cleavage sites was “Tyr7-Lys8, Lys8-Arg9, and Lys10-Phe11”.

What about the “Incubation time to near-complete degradation of P-113” value ([5]; 0.25 mM 15N-labeled P-113 (no FITC), 10^7 CFU/mL C. albicans, SD broth with 10% D2O, 301 K, 1H-15N HSQC every hour) of the same molecule?
Its value is 5 h.

And the “Time at which the first cleavage (Lys10-Phe11) was observed” value ([5]; 0.25 mM 15N-labeled P-113, 10^7 CFU/mL C. albicans, SD broth, 301 K, new HSQC cross-peaks)?
Its value is 1 h.

And the “Changes in 1H-15N HSQC chemical shifts (degradation) in the presence of pepstatin A” value ([5]; 0.25 mM P-113, 10^7 CFU/mL C. albicans + 0.5 mM pepstatin A, 301 K, 24 h)?
Its value is “no noticeable changes”.

What about the “Changes in chemical shifts (degradation) at cell densities below 10^7 cells/mL” value ([5]; 0.25 mM P-113, C. albicans below 10^7 cells/mL, data not shown) of the same molecule?
Its value is “did not show any noticeable changes”.
